# Experimental data taken from patent publication US11566030B2, “Substituted 2,6-dihydropyrrolo[3,4-c]pyrazoles as pyruvate kinase activators” (priority 2021, dated 2023).
# Read-outs that look alike come from different tables or passages of the source.
# Target: T1, Human pyruvate kinase R (PKR) (Homo sapiens, UniProt P30613)
# T1 construct: Human pyruvate kinase R (PKR), residues 14-574; 6xHis-8xArg-SUMO (N, cleaved yes); host or cells: E. coli
# Assay: Biochemical assay for activation of pyruvate kinase R (Kinase-Glo luminescence, ATP generation)
# Details: for Emax: read-out: PKR % activation, maximal activation level achieved with each compound relative to the activation level achieved by AG-348 @ 10 μM
# How it was run: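 Recombinant human PKR (residues 14-574) expressed in E. coli with His-Arg-SUMO tag, tag cleaved, purified by Ni-NTA, anion exchange and size exclusion. Activation read as ATP generation by Kinase-Glo luminescence.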
# [1] = PKR AC50 (nM), 0.1 nM PKR, 0.3 mM ADP, 0.1 mM PEP, 1% DMSO
# T1 sequence (P30613 14-574): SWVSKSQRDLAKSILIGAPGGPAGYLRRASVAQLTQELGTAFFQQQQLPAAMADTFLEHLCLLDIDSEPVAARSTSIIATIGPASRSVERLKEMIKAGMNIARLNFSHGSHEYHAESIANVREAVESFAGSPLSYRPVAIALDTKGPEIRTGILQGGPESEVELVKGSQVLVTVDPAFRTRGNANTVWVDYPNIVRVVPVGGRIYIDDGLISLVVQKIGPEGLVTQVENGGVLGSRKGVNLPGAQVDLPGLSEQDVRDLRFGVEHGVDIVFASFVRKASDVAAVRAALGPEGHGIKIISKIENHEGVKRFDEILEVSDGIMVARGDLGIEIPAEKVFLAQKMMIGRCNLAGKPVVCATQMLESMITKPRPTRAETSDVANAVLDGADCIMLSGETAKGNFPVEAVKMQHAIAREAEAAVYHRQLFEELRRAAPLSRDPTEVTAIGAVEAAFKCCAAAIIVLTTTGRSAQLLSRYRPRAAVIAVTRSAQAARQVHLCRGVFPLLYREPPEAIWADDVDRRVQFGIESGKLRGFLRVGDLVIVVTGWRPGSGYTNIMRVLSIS
AC50 [1],Emax,AC50,SMILES
960 nM,126%,–,"O=C([C@@H](O)c1ccccc1F)N1Cc2cn(S(=O)(=O)c3cnn(CC(F)F)c3)nc2C1 [Compound 37, (2S)-1-[2-[1-(2,2-difluoroethyl)pyrazol-4-ylsulfonyl]-4H,6H-pyrrolo[3,4-c]pyrazol-5-yl]-2-(2-fluorophenyl)-2-hydroxyethanone]"
53 nM,23%,–,"O=C([C@H](CO)c1ccccc1)N1Cc2cn(S(=O)(=O)c3ccc(CCC(F)(F)F)s3)nc2C1 [Compound 17, (2S)-3-hydroxy-2-phenyl-1-(2-{[5-(3,3,3-trifluoropropyl)thiophen-2-yl]sulfonyl}-2H,4H,5H,6H-pyrrolo[3,4-c]pyrazol-5-yl)propan-1-one]"
–,98%,9.6 nM,"O=C([C@H](CO)c1ccccc1)N1Cc2cn(S(=O)(=O)c3ccn(CC(F)F)n3)nc2C1 [Compound 72, (2S)-1-{2-[1-(2,2-difluoroethyl)pyrazol-3-ylsulfonyl]-4H,6H-pyrrolo[3,4-c]pyrazol-5-yl}-3-hydroxy-2-phenylpropan-1-one]"
64 nM,93%,–,"O=C([C@H](CO)c1ccccc1)N1Cc2cn(S(=O)(=O)c3cn(CC(F)F)cn3)nc2C1 [Compound 24, (2S)-1-(2-{[1-(2,2-difluoroethyl)-1H-imidazol-4-yl]sulfonyl}-2H,4H,5H,6H-pyrrolo[3,4-c]pyrazol-5-yl)-3-hydroxy-2-phenylpropan-1-one]"
–,65%,16 nM,"CCc1ccc(S(=O)(=O)n2cc3c(n2)CN(C(=O)[C@H](CO)c2ccccc2)C3)s1 [Compound 21, (2S)-1-{2-[(5-ethylthiophen-2-yl)sulfonyl]-2H,4H,5H,6H-pyrrolo[3,4-c]pyrazol-5-yl}-3-hydroxy-2-phenylpropan-1-one]"
2.7 nM,88%,–,"O=C([C@H](CO)c1ccccc1F)N1Cc2cn(S(=O)(=O)c3cnn(CCF)c3)nc2C1 [Compound 5, (2S)-1-(2-{[1-(2-fluoroethyl)-1H-pyrazol-4-yl]sulfonyl}-2H,4H,5H,6H-pyrrolo[3,4-c]pyrazol-5-yl)-2-(2-fluorophenyl)-3-hydroxypropan-1-one]"
–,59%,30 nM,"O=C([C@H](CO)c1ccccc1F)N1Cc2cn(S(=O)(=O)c3cnn(CCC(F)(F)F)c3)nc2C1 [Compound 58, (S)-2-(2-fluorophenyl)-3-hydroxy-1-(2-((1-(3,3,3-trifluoropropyl)-1H-pyrazol-4-yl)sulfonyl)-2,6-dihydropyrrolo[3,4-c]pyrazol-5(4H)-yl)propan-1-one]"
7 nM,133%,–,"O=C([C@H](CO)c1ccccc1Cl)N1Cc2cn(S(=O)(=O)c3ccn(CC(F)F)n3)nc2C1 [Compound 13, (2S)-2-(2-chlorophenyl)-1-(2-{[1-(2,2-difluoroethyl)-1H-pyrazol-3-yl]sulfonyl}-2H,4H,5H,6H-pyrrolo[3,4-c]pyrazol-5-yl)-3-hydroxypropan-1-one]"
5.7 nM,103%,–,"O=C(N1Cc2cn(S(=O)(=O)c3cnn(CC(F)F)c3)nc2C1)C1(c2ncccc2Cl)COC1 [Compound 8, 3-chloro-2-(3-[2-[1-(2,2-difluoroethyl)pyrazol-4-ylsulfonyl]-4H,6H-pyrrolo[3,4-c]pyrazole-5-carbonyl]oxetan-3-yl)pyridine]"
–,114%,40 nM,"O=C([C@@H](CO)c1ncccc1F)N1Cc2cn(S(=O)(=O)c3ccn(CC(F)F)n3)nc2C1 (single isomer, unassigned) [Compound 32]"
–,55%,1600 nM,"O=C([C@@H](CO)c1ccccc1F)N1Cc2cn(S(=O)(=O)c3cnn(CCC(F)(F)F)c3)nc2C1 [Compound 59, (R)-2-(2-fluorophenyl)-3-hydroxy-1-(2-((1-(3,3,3-trifluoropropyl)-1H-pyrazol-4-yl)sulfonyl)-2,6-dihydropyrrolo[3,4-c]pyrazol-5(4H)-yl)propan-1-one]"
